Legend:
Type in all cases: cell-based, Staphylococcus epidermidis
S. epidermidis [1] = assay: Colony count (colony formation) assay; conditions: 100 μl stock solution, 24 h at 37° C.
Protocol: Using S. epidermidis broth (McFarland 0.5 standard), 100 μl was placed in the center of the agar plate. 100 μl of the respective antibacterial stock solution is added to the center. Bacteria was spread through the Petri dish and the plates were further incubated for 24 h at 37° C. Pictures of the plates were uploaded onto the OpenCFU software to count the number of colonies grown on the plate. Two plates were prepared for each antibacterial treatment with corresponding controls.

S. epidermidis [2] = assay: Turbidity assay (absorption at 600 nm); conditions: serial dilution, 24 h at 37° C.
Protocol: A serial dilution (using the factor of 2) of antibacterial solutions was conducted in 12-well plates starting with 200 μL of antibacterial solution was placed in first well. 850 μl of broth and 50 μl of bacterial broth were added to each well plate. The concentrations tested for doxycycline were 1, 0.5, 0.25, 0.125 and 0 mg/mL. The concentrations tested for methicillin are 1.25, 0.625,0.313, […] and 0 mg/mL. Plates were that incubated at 37° C. for 24 h. The solutions were transferred to cuvettes, and their turbidity is measured using a Cary 500 spectrophotometer with the broth used as a baseline. Two wells were prepared for each concentration.

S. epidermidis [3] = assay: Disk diffusion (zone inhibition) assay; conditions: 2 and 4 mg doses; compared to non-treatment control; 24 h at 37° C.
Protocol: S. epidermidis broth of McFarland 0.5 standard (absorption of 0.08 to 0.1) was created using Mueller Hilton Broth. This standard stabilized the cell count at an approximate 1×10^8 CFU/mL Dilution was plated within 15 minutes of standardization. Following the proper aseptic techniques, 0.2 mL of bacterial broth was placed in the center of prepared agar dish. A sterile bacteria spreader was used to evenly spread the bacteria throughout the plate to create a lawn.
Two different dosages of the antibacterial solutions were tested to increase the breadth and reliability of data. […] Petri dishes are incubated for 24 h at 37° C., then the zones of inhibition were measured with the inclusion of disk diameter in the measurements.
The statistical analysis performed in this work confirm the significance of the observed results for diffusion discs performed at different amounts of SWCNT/antibiotic complex loaded onto discs. […] When the p-value of the analysis is lower than the confidence level chosen, the hypothesis is proven false and a significant difference and variation is detected.
The dataset is analyzed using a comparison of means function by assigning a mean of the control group and comparing it to the means of each of the treatment groups. […]

## COc1cccc(OC)c1C(=O)N[C@@H]1C(=O)N2[C@@H]1SC(C)(C)[C@@H]2C(=O)O [methicillin]
S. epidermidis [1]
  colony count (in words): complete lack of inhibition response
S. epidermidis [2]
  turbidity of bacterial media (absorption at 600 nm): some bacterial inhibition
S. epidermidis [3]
  antibacterial effect (zone of inhibition) of antibiotic alone: no antibiotic activity
